For data set [1], the system named is Rattus norvegicus. Briefly: Narcotic analgesic activity in sc dosed rat assessed as inhibition of phenazocine-induced effect by D'Amour-Smith tail flick test. It is filed as functional.
In data set [2] the test system is Mus musculus. The data set can be described thus: Antiwrithing activity in sc dosed mouse assessed as prevention of acetylcholine-induced abdominal constriction response. The data set is classed as functional. The following applies: Abdomen. In general terms: An intraperitoneal irritant provokes the stretching counted in writhing tests.
The test system of data set [3] is Rattus norvegicus. Briefly: Narcotic analgesic activity in po dosed rat assessed as inhibition of phenazocine-induced effect by D'Amour-Smith tail flick test. It is filed as functional. A general note: Hot-plate and tail-flick tests time the reaction to a heat stimulus.
Data set [4] has as its system Mus musculus. Briefly: Antiwrithing activity in mouse assessed as prevention of acetylcholine-induced abdominal constriction response at 25 mg/kg, sc. The data set is classed as functional, Abdomen. The conditions noted are these: route subcutaneous.
The subject of data set [5] is Mus musculus. Briefly: Antiwrithing activity in mouse assessed as prevention of acetylcholine-induced abdominal constriction response at 100 mg/kg, sc. The conditions noted are these: route subcutaneous. It is filed as functional, Abdomen.
For data set [6], the system named is Mus musculus. The data set can be described thus: Induction of depression in mouse at 75 mg/kg, sc. It is filed as organism-based. On the set-up: dose 75 mg/kg, route subcutaneous. The conditions noted are these: in vivo.
The subject of data set [7] is Mus musculus. The data set can be described thus: Antiwrithing activity in sc dosed mouse assessed as prevention of phenyl-p-benzoquinone-induced abdominal constriction response. It is filed as functional. The following applies: Abdomen.
In data set [8] the test system is Rattus norvegicus. The data set can be described thus: Induction of tremors in rat at 120 mg/kg, sc. It is filed as organism-based. On the set-up: dose 120 mg/kg, route subcutaneous. The conditions noted are these: in vivo.
The subject of data set [9] is Mus musculus. Briefly: Induction of sedation in mouse at 40 mg/kg, sc. The following applies: in vivo. Also noted: dose 40 mg/kg, route subcutaneous. It is filed as organism-based.
Data set [10] has as its system Mus musculus. Briefly: Antiwrithing activity in po dosed mouse assessed as prevention of acetylcholine-induced abdominal constriction response. The data set is classed as functional. The conditions noted are these: Abdomen.
For data set [11], the system named is Rattus norvegicus. The data set can be described thus: Analgesic activity in rat assessed as inhibition of intraarterial bradykinin-induced effect up to 100 mg/kg, sc. It is filed as functional.
Data set [12] concerns Mus musculus. The data set can be described thus: Antiwrithing activity in po dosed mouse assessed as prevention of phenyl-p-benzoquinone-induced abdominal constriction response. It is filed as functional. The following applies: Abdomen.
Data set [13] concerns Rattus norvegicus. The data set can be described thus: Narcotic analgesic activity in sc dosed rat assessed as inhibition of meperidine-induced effect by D'Amour-Smith tail flick test. The data set is classed as functional, organism-based.
In data set [14] the test system is Rattus norvegicus. Briefly: Narcotic analgesic activity in po dosed rat assessed as inhibition of meperidine-induced effect by D'Amour-Smith tail flick test. It is filed as functional, organism-based.
The subject of data set [15] is Rattus norvegicus. The data set can be described thus: Induction of convulsion in rat at 120 mg/kg, sc. The data set is classed as organism-based. On the set-up: dose 120 mg/kg, route subcutaneous. The conditions noted are these: in vivo.
Data set [16] has as its system Rattus norvegicus. The data set can be described thus: Narcotic analgesic activity in po dosed rat assessed as inhibition of morphine-induced effect by D'Amour-Smith tail flick test. It is filed as functional, organism-based.
The test system of data set [17] is Rattus norvegicus. The data set can be described thus: Narcotic analgesic activity in sc dosed rat assessed as inhibition of morphine-induced effect by D'Amour-Smith tail flick test. It is filed as functional, organism-based.
The test system of data set [18] is Mus musculus. Briefly: Induction of hyperexcitable in mouse at 100 mg/kg, sc. Also noted: dose 100 mg/kg, route subcutaneous. The conditions noted are these: in vivo. The data set is classed as organism-based.
Data set [19] relates to Rattus norvegicus. Briefly: Induction of hyperactiveness in rat at 200 mg/kg, po. It is filed as organism-based. Also noted: dose 200 mg/kg, route oral. The following applies: in vivo.
The subject of data set [20] is Rattus norvegicus. Briefly: Induction of depression in rat at 75 mg/kg, sc. It is filed as organism-based. The conditions noted are these: in vivo. Also noted: dose 75 mg/kg, route subcutaneous.
The test system of data set [21] is Mus musculus. Briefly: Analgesic activity in mouse assessed as inhibition of intraarterial bradykinin-induced effect at 50 mg/kg, sc. The data set is classed as functional, organism-based. On the set-up: dose 50 mg/kg.
Data set [22] relates to Mus musculus. Briefly: Antiwrithing activity in mouse assessed as prevention of acetylcholine-induced abdominal constriction response at 15 mg/kg, sc. The data set is classed as functional, Abdomen. The following applies: route subcutaneous.
Data set [23] has as its system Mus musculus. The data set can be described thus: Toxicity in mouse assessed as mortality at >15 mg/kg, sc. It is filed as organism-based. The conditions noted are these: in vivo.
For data set [24], the system named is Mus musculus. Briefly: Induction of hyperactiveness in mouse at 30 mg/kg, sc. The data set is classed as organism-based. On the set-up: dose 30 mg/kg, route subcutaneous. The following applies: in vivo.
Data set [25] relates to Mus musculus. The data set can be described thus: Induction of convulsion in mouse at 75 mg/kg, sc. On the set-up: dose 75 mg/kg, route subcutaneous. The conditions noted are these: in vivo. The data set is classed as organism-based.

Experimental findings from ChEMBL document CHEMBL3272190, “(2-exo-3-endo)-2-Aryltropane-3-carboxylic esters, a new class of narcotic antagonists” (J Med Chem, 1978) are described below.

Activity calls are given as the source filed them. The calls are words filed in the database; no cut-off is given here.

Consider `COC(=O)[C@H]1C[C@H]2CC[C@H]([C@H]1c1ccccc1)N2C`, for which the AD50 with Rattus norvegicus [1] was >80 mg/kg.
Same read-out and setting: as for `COC(=O)[C@H]1C[C@H]2CC[C@@H]([C@H]1c1ccccc1)N2C`, the figure is 3.3 mg/kg.
As a reminder, the ED50 is the dose that gives a 50% effect, or the effect in half of the subjects. With `COC(=O)[C@H]1C[C@H]2CC[C@@H](N2)[C@H]1c1cccc(O)c1`, the AD50 in the data set on Rattus norvegicus [1] was >80 mg/kg. The ED50 in the data set with Mus musculus [2] amounted to 60 mg/kg.
On to `COC(=O)[C@H]1C[C@H]2CC[C@H](N2)[C@H]1c1cccc(O)c1`, for which the AD50 amounted to 14 mg/kg in the data set with Rattus norvegicus [3] and 0.3 mg/kg in the data set on Rattus norvegicus [1]. Besides, the median effective dose (ED50) in the data set on Mus musculus [2] was found to be 60 mg/kg.
For the compound `COC(=O)[C@H]1C[C@H]2CC[C@@H]3[C@H]1c1cc(O)ccc1CN23`, the Activity with Mus musculus [4] is 0%; in the data set on Mus musculus [5], 100%; in the data set with Mus musculus [6], “Toxic”. Besides, the AD50 with Rattus norvegicus [1] worked out at 1.45 mg/kg.
For `COC(=O)[C@H]1C[C@H]2CC[C@@H]3[C@H]1c1cccc(O)c1CN23`, the AD50 with Rattus norvegicus [1] turned out to be 2 mg/kg.
Turning to `COC(=O)[C@@H]1C[C@H]2CCC([C@H]1c1ccccc1)N2C` (mixture of isomers), the median effective dose (ED50) in the data set on Mus musculus [7] is 17 mg/kg; with Mus musculus [2], 12 mg/kg. For the same compound, the Activity entry in the data set on Rattus norvegicus [8] and in the data set with Mus musculus [9] was “Toxic” throughout. In the data set with Rattus norvegicus [1], the AD50 is >80 mg/kg.
As to `COC(=O)[C@H]1C[C@H]2CCC([C@H]1c1ccccc1)N2C` (mixture of isomers), the ED50 in the data set on Mus musculus [10] is 16 mg/kg; in the data set on Mus musculus [7], 43 mg/kg; with Mus musculus [12] it was > 200 mg/kg; with Mus musculus [2], 12 mg/kg. For the same compound, the outcome in the data set with Rattus norvegicus [11], in the data set on Rattus norvegicus [13], with Rattus norvegicus [14], in the data set on Rattus norvegicus [16] and with Rattus norvegicus [17] was inactive. For the same compound, the results for the AD50 in the data set with Rattus norvegicus [3] and in the data set on Rattus norvegicus [1] were 1.1 mg/kg and 5.5 mg/kg, respectively. The Activity result in the data set on Rattus norvegicus [15], in the data set with Mus musculus [9] and with Mus musculus [18] was “Toxic” throughout.
In the case of `COC(=O)[C@H]1C[C@H]2CCC(N2)[C@H]1c1cccc(O)c1` (mixture of isomers), the AD50 in the data set with Rattus norvegicus [1] was determined as 2 mg/kg.
With `COC(=O)C1C[C@H]2CC[C@H]([C@H]1c1cccs1)N2C` (mixture of isomers), the values for the ED50 with Mus musculus [7] and with Mus musculus [2] were 60 mg/kg and 13 mg/kg, respectively. Further, the AD50 in the data set on Rattus norvegicus [1] is 4.9 mg/kg. Also, the Activity result with Mus musculus [6] was “Toxic”.
`COC(=O)[C@H]1C[C@H]2CC[C@H]([C@H]1c1ccc[nH]1)N2C` (racemic): the 50% effective dose (ED50) in the data set with Mus musculus [10] was determined as 34 mg/kg. The Activity result in the data set on Rattus norvegicus [19] is on record as “Toxic”. In addition, the AD50 with Rattus norvegicus [1] is >80 mg/kg.
Consider `COC(=O)[C@@H]1C[C@H]2CC[C@H]([C@H]1c1ccccc1)N2Cc1ccccc1` (racemic), for which the 50% effective dose (ED50) is 21 mg/kg in the data set on Mus musculus [10] and > 75 mg/kg with Mus musculus [2]. For the same compound, the AD50 in the data set with Rattus norvegicus [1] was >80 mg/kg.
Consider `COC(=O)[C@H]1C[C@H]2CC[C@@H](N2)[C@H]1c1ccccc1` (racemic), for which the ED50 in the data set with Mus musculus [10] came to 8.4 mg/kg; with Mus musculus [7], 22 mg/kg; with Mus musculus [12], 100 mg/kg; in the data set on Mus musculus [2] it was 3.4 mg/kg. Moreover, the values for the AD50 in the data set with Rattus norvegicus [3] and with Rattus norvegicus [1] were 4.1 mg/kg and 2.1 mg/kg, respectively. For the same compound, the Activity entry with Rattus norvegicus [8] and in the data set on Rattus norvegicus [20] was “Toxic” throughout. For the same compound, the outcome with Mus musculus [21] was Active.
`COC(=O)[C@H]1C[C@H]2CC[C@H]([C@H]1c1ccccc1)N2CC1CC1` (racemic): the Activity is reported as 67% in the data set with Mus musculus [22], “Toxic” in the data set on Mus musculus [23], “Toxic” in the data set on Mus musculus [24] and “Toxic” with Mus musculus [25]. For the same compound, the AD50 with Rattus norvegicus [1] amounted to 10 mg/kg. Also, in the data set with Mus musculus [2], the ED50 is 10 mg/kg.
On to `CN1[C@@H]2CC[C@@H]1[C@@H](c1ccccc1)[C@@H](C(=O)O)C2` (racemic), for which the AD50 in the data set with Rattus norvegicus [1] is >80 mg/kg.
